Columns and labels:
[1] = test system: taenia caecum smooth muscle; test: Smooth muscle relaxation (isolated guinea pig taenia caecum, organ bath); assay type: cell-based, guinia pigs; settings: Cavia porcellus; cumulative addition; papaverine (10^-4 M) relaxation taken as 100%; MOPS-PSS pH 7.4, 37°±1° C.; read-out: ED50 (dose achieving 50% relaxation)
Procedure: Male guinia pigs weighing 300-600 g were stunned by blow on the head. Taeniae were isolated from the caecum and cut into length of about 1 cm to prepare a plurality of test specimens. These specimens were suspended in an organ bath filled with MOPS-PSS containing 129.7 mM of NaC1, 5.9 mM of KC1, 2.54 mM of CaC12, 1.19 mM of MgC12, 10.0 mM of 3-(N-morpholino)propanesulfonic acid (MOPS) and 11.1 mM of glucose, pH 7.4. The bathing solution was continuously bubbled with 100% O2 gas and maintained at 37°±1° C. Resting tension of each specimen was adjusted to 1 g and the spontaneous response was recorded isotonically. The specimens were allowed to stabilize before starting the test. Test compound was cumulatively added to the bathing solution. A relaxation induced with papaverine (10^-4 M) was taken as 100% relaxation. The relaxation effect of each test compound was evaluated in terms of a dose achieving 50% relaxation (ED50) determined by the linear regression analysis.

[2] = Hypotensive activity in anesthetized dogs (mean blood pressure); assay type: in vivo, Mongrel dogs; settings: 30 μg/kg, i.v.; pentobarbital-anesthetized dogs
Procedure: Mongrel dogs of both sexes, weighing 11-22 kg, were anesthetized with sodium pentobarbital (30 mg/kg, i.v.). Mean blood pressure was measured with a carrier amplifier (Nihon Koden, AP-621G) via a pressure transducer (Nihon Koden, TP-200T) connected to the cannulated left femoral artery. Each test compound was dissolved in 0.9% saline containing 50% (v/v) ethanol and injected into the femoral vein in volumes of 0.1 ml/kg. The hypotensive effects of test compounds were evaluated in terms of the maximum decrease in the mean blood pressure (Δ mmHg) at a dose of 30 μg/kg.

[3] = test system: K^+ channel; test: K^+ channel opening activity (^86 Rb^+ efflux from taenia caecum); assay type: cell-based, guinia pigs; settings: n = 5; efflux just before addition taken as 100%; 37°±1° C.
Procedure: In order to ascertain that the smooth muscle relaxation activity is proportional to the K^+ channel opening activity, the compound of Example B-2 was tested for the K^+ channel opening activity in comparison with pinacidil.
^86 Rb^+ efflux was selected as the indication of K^+ channel opening effect because the K^+ channels were considered to be selective also for Rb^+. In a similar manner to the test 1, specimens of taenia caecum were suspended in a test tube filled with MOPS-PSS. The bathing solution was continuously bubbled with 100% O2 gas and maintained at 37°±1° C. After an equilibration period for about 45 minutes, the specimens were loaded with ^86 Rb^+. The efflux from the specimens was measured using a scintillation counter at every 2 minutes interval. The efflux data were expressed in terms of the rate coefficient (the ^86 Rb^+ efflux just before the test compounds were added were taken as 100%). The effective dose (ED15) Producing 15% increase of the rate coefficient by the test compounds were calculated from the linear regression analysis.

[4] = in vivo; settings: rat, po, fasted male rats, deaths for 7 days, Weil's method
Procedure: Male rats weighing 70-210 g (3-5 rats/group) were fasted overnight and administered orally with the test compound suspended in 5% gum arabic solution. LD50 was calculated from the number of death for 7 days using the Weil's method.

For CCCC(C)(C)N=C(NC#N)Nc1cc(Cl)cc(Cl)c1 [Ex. B-3, N-cyano-N'-(3,5-dichlorophenyl)-N"-(1,1-dimethylbutyl)guanidine], the EC50 [1] was 0.035 µM and the “maximum decrease in the mean blood pressure, Δ mm Hg ± S.E.” value (shortened to “maximum decrease … Δ mm Hg ± S.E.”) [2] was -22.9 ± 3.2 mm Hg.
CC(C)(C)NC(=Nc1c(Cl)cccc1Cl)NC#N [Compd. B, N-t-butyl-N'-cyano-N"-(2,6-dichlorophenyl)guanidine, reference compound] showed an EC50 [1] greater than 100 µM.
Work on CCC(C)(C)N=C(NC#N)Nc1cc(F)cc(Cl)c1 [Ex. B-12, N-(3-chloro-5-fluorophenyl)-N'-cyano-N"-t-pentylguanidine] yielded an EC50 [1] of 0.054 µM.
Compound CC(C)(C)NC(=Nc1cc(F)cc(F)c1)NC#N [Ex. B-8, N-t-butyl-N'-cyano-N"-(3,5-difluorophenyl)guanidine] has an EC50 [1] of 0.18 µM.
In the case of CCC(C)(C)N=C(NC#N)Nc1cc(Cl)cc(Cl)c1 [Ex. B-2, N-cyano-N'-(3,5-dichlorophenyl)-N"-t-pentylguanidine], the “ED15 (dose producing 15% increase of the ^86 Rb^+ efflux rate coefficient)” value [3] is reported as 0.27 µM, the EC50 [1] is reported as 0.026 µM and the LD50 at 168 h [4] is reported as greater than 2000 mg/kg. For the same compound, the “maximum decrease … Δ mm Hg ± S.E.” value [2] was -19.1 ± 4.1 mm Hg.
With CC(N=C(NC#N)Nc1cc(Cl)cc(Cl)c1)C(C)(C)C (centres unmarked) [Ex. B-6, N-cyano-N'-(3,5-dichlorophenyl)-N"-(1,2,2-trimethylpropyl)guanidine] the EC50 [1] was 0.18 µM.
CC(C)C(C)(C)N=C(NC#N)Nc1cc(Cl)cc(Cl)c1 [Ex. B-4, N-cyano-N'-(3,5-dichlorophenyl)-N"-(1,1,2-trimethylpropyl)guanidine] showed an EC50 [1] of 0.058 µM.
With CCC(C)(C)N=C(NC#N)Nc1cc(F)cc(Br)c1 [Ex. B-13, N-(3-bromo-5-fluorophenyl)-N'-cyano-N"-t-pentylguanidine] the EC50 [1] was 0.025 µM, the LD50 at 168 h [4] was greater than 2000 mg/kg and the “maximum decrease … Δ mm Hg ± S.E.” value [2] was -33.4 ± 0.9 mm Hg.
For CC(NC(=C[N+](=O)[O-])Nc1ccccc1)C(C)(C)C (centres unmarked) [Compd. C, 2-nitro-1-anilino-1-(1,2,2-trimethylpropyl)aminoethene, reference compound], the EC50 [1] was 2.7 µM.
CCC(C)(C)N=C(NC#N)Nc1cc(Br)cc(Br)c1 [Ex. B-10, N-cyano-N'-(3,5-dibromophenyl)-N"-t-pentylguanidine] gave an EC50 [1] of 0.019 µM.
CCC(C)(C)NC(=Nc1ccccc1)NC#N [Compd. A, N-cyano-N'-t-pentyl-N"-phenylguanidine, reference compound] showed an EC50 [1] of 1.8 µM.
For CCC(C)(CC)N=C(NC#N)Nc1cc(Cl)cc(Cl)c1 [Ex. B-5, N-cyano-N'-(3,5-dichlorophenyl)-N"-(1-ethyl-1-methylpropyl)guanidine], the EC50 [1] was 0.081 µM, the LD50 at 168 h [4] was greater than 2000 mg/kg and the “maximum decrease … Δ mm Hg ± S.E.” value [2] was -26.1 ± 1.8 mm Hg.
With CC(C)(C)NC(=Nc1cc(Br)cc(Br)c1)NC#N [Ex. B-9, N-t-butyl-N'-cyano-N"-(3,5-dibromophenyl)guanidine] the EC50 [1] was 0.021 µM.
Work on CCC(CC)(CC)N=C(NC#N)Nc1cc(Cl)cc(Cl)c1 [Ex. B-7, N-cyano-N'-(3,5-dichlorophenyl)-N"-(1,1-diethylpropyl)guanidine] yielded an EC50 [1] of 0.18 µM.
In the case of CC(C)(C)NC(=Nc1cc(Cl)cc(Cl)c1)NC#N [Ex. B-1, N-t-butyl-N'-cyano-N"-(3,5-dichlorophenyl)-guanidine], the EC50 [1] is reported as 0.087 µM and the LD50 at 168 h [4] is reported as greater than 2000 mg/kg.
For CC(C)(C)NC(=NC#N)Nc1cc(F)cc(Cl)c1 [Ex. B-11, N-t-butyl-N'-(3-chloro-5-fluorophenyl)-N"-cyanoguanidine], the EC50 [1] was 0.066 µM and the “maximum decrease … Δ mm Hg ± S.E.” value [2] was -19.2 ± 4.4 mm Hg.
In the case of CC(N=C(NC#N)Nc1ccncc1)C(C)(C)C.O (centres unmarked) [Pinacidil, N-cyano-N'-(4-pyridyl)-N"-(1,2,2-trimethylpropyl)guanidine monohydrate, reference compound], the “ED15 (dose producing 15% increase of the ^86 Rb^+ efflux rate coefficient)” value [3] is reported as 24 µM, the EC50 [1] is reported as 2 µM and the “maximum decrease … Δ mm Hg ± S.E.” value [2] is reported as -11.3 ± 1.1 mm Hg.

Source: US5087640A, “Novel cyanoguanidine derivatives” (Kanebo, Ltd., priority 1989, dated 1992)
